Results taken from PubChem BioAssay (NCI).
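A five-concentration, 48-hour dose response in 96-well plates underlies each endpoint, interpolated linearly between surrounding concentrations. TGI marks complete inhibition of growth.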

What was measured:
Test in all cases: NCI-60 cell line screen, 48 h
[1] = tested on: SW-620 colon
[2] = tested on: NCI-H23 lung
[3] = tested on: SK-MEL-28 melanoma
[4] = tested on: 786-0 renal
[5] = tested on: NCI-H460 lung
[6] = tested on: SK-MEL-5 melanoma
[7] = tested on: DU-145 prostate
[8] = tested on: HCT-116 colon
[9] = tested on: PC-3 prostate
[10] = tested on: SR leukemia
[11] = tested on: HT29 colon
[12] = tested on: HCC-2998 colon
[13] = tested on: OVCAR-8 ovarian
[14] = tested on: HOP-62 NSCLC
[15] = tested on: SF-295 CNS
[16] = tested on: EKVX NSCLC
[17] = tested on: NCI/ADR-RES ovarian
[18] = tested on: HCT-15 colon
[19] = tested on: SNB-75 CNS
[20] = tested on: OVCAR-3 ovarian
[21] = tested on: U251 CNS
[22] = tested on: HL-60(TB) leukemia
[23] = tested on: MDA-N
[24] = tested on: HS 578T breast
[25] = tested on: SNB-19 CNS
[26] = tested on: SN12C renal
[27] = tested on: A498 renal
[28] = tested on: COLO 205 colon
[29] = tested on: MOLT-4 leukemia
[30] = tested on: CAKI-1 renal
[31] = tested on: UO-31 renal
[32] = tested on: TK-10 renal
[33] = tested on: BT-549 breast
[34] = tested on: RXF 393 renal
[35] = tested on: NCI-H226 lung
[36] = tested on: SF-268 CNS
[37] = tested on: CCRF-CEM leukemia
[38] = tested on: UACC-257 melanoma
[39] = tested on: K-562 leukemia
[40] = tested on: MCF7 breast
[41] = tested on: KM12 colon
[42] = tested on: IGROV1 ovarian
[43] = tested on: HOP-92 NSCLC
[44] = tested on: OVCAR-4 ovarian
[45] = tested on: MDA-MB-231 breast
[46] = tested on: MDA-MB-435
[47] = tested on: A549 NSCLC
[48] = tested on: RPMI-8226 leukemia
[49] = tested on: SF-539 CNS
[50] = tested on: OVCAR-5 ovarian
[51] = tested on: MALME-3M melanoma
[52] = tested on: ACHN renal
[53] = tested on: LOX IMVI melanoma
[54] = tested on: NCI-H522 lung
[55] = tested on: SK-OV-3 ovarian
[56] = tested on: M14 melanoma
[57] = tested on: T-47D breast
[58] = tested on: UACC-62 melanoma
[59] = tested on: SK-MEL-2 melanoma

`O=C(Nc1nc(C23CC4CC(CC(C4)C2)C3)cs1)c1cc2cc([N+](=O)[O-])ccc2oc1=O` was tested, and the TGI [1] was greater than 100 µM, the TGI [2] was greater than 100 µM and the TGI [3] was greater than 100 µM. For the same molecule, the TGI [4] was 45.2 µM, the TGI [5] was greater than 100 µM and the TGI [6] was 96.9 µM. It also gave a TGI [7] greater than 100 µM, a TGI [8] greater than 100 µM and a TGI [9] greater than 100 µM. The TGI [10] was greater than 100 µM, the TGI [11] was greater than 100 µM and the TGI [12] was greater than 100 µM. It also gave a TGI [13] greater than 100 µM, a TGI [14] greater than 100 µM and a TGI [15] greater than 100 µM. For the same molecule, the TGI [16] was greater than 100 µM, the TGI [17] was greater than 100 µM and the TGI [18] was greater than 100 µM. It also gave a TGI [19] of 74.9 µM, a TGI [20] greater than 100 µM and a TGI [21] greater than 100 µM. The TGI [22] was greater than 100 µM, the TGI [23] was greater than 100 µM and the TGI [24] was 67.9 µM. It also gave a TGI [25] greater than 100 µM, a TGI [26] greater than 100 µM and a TGI [27] greater than 100 µM. It also gave a TGI [28] greater than 100 µM, a TGI [29] greater than 100 µM and a TGI [30] greater than 100 µM. It also gave a TGI [31] greater than 100 µM, a TGI [32] greater than 100 µM and a TGI [33] of 40.4 µM. For the same molecule, the TGI [34] was 74.8 µM, the TGI [35] was greater than 100 µM and the TGI [36] was greater than 100 µM. For the same molecule, the TGI [37] was greater than 100 µM, the TGI [38] was greater than 100 µM and the TGI [39] was greater than 100 µM. It also gave a TGI [40] greater than 100 µM, a TGI [41] greater than 100 µM and a TGI [42] greater than 100 µM. The TGI [43] was greater than 100 µM, the TGI [44] was 44.8 µM and the TGI [45] was greater than 100 µM. The TGI [46] was greater than 100 µM, the TGI [47] was greater than 100 µM and the TGI [48] was greater than 100 µM. The TGI [49] was greater than 100 µM, the TGI [50] was greater than 100 µM and the TGI [51] was greater than 100 µM. For the same molecule, the TGI [52] was greater than 100 µM, the TGI [53] was greater than 100 µM and the TGI [54] was greater than 100 µM.

In the case of `COc1cc(-c2[o+]c3cc(O)cc(OC4OC(CO)C(O)C(O)C4O)c3cc2OC2OC(CO)C(O)C(O)C2O)cc(OC)c1O` (stereo not drawn), the TGI [1] is reported as greater than 100 µM, the TGI [2] is reported as greater than 100 µM and the TGI [3] is reported as greater than 100 µM. It also gave a TGI [4] greater than 100 µM, a TGI [5] greater than 100 µM and a TGI [6] greater than 100 µM. It also gave a TGI [7] greater than 100 µM, a TGI [55] greater than 100 µM and a TGI [8] greater than 100 µM. For the same molecule, the TGI [9] was greater than 100 µM, the TGI [10] was greater than 100 µM and the TGI [11] was greater than 100 µM. The TGI [56] was greater than 100 µM, the TGI [12] was greater than 100 µM and the TGI [13] was greater than 100 µM. The TGI [14] was greater than 100 µM, the TGI [15] was greater than 100 µM and the TGI [16] was greater than 100 µM. It also gave a TGI [57] greater than 100 µM, a TGI [18] greater than 100 µM and a TGI [19] greater than 100 µM. For the same molecule, the TGI [58] was greater than 100 µM, the TGI [20] was greater than 100 µM and the TGI [21] was greater than 100 µM. The TGI [22] was greater than 100 µM, the TGI [23] was greater than 100 µM and the TGI [24] was greater than 100 µM. For the same molecule, the TGI [25] was greater than 100 µM, the TGI [26] was greater than 100 µM and the TGI [27] was greater than 100 µM. For the same molecule, the TGI [28] was greater than 100 µM, the TGI [29] was greater than 100 µM and the TGI [30] was greater than 100 µM. It also gave a TGI [31] greater than 100 µM, a TGI [32] greater than 100 µM and a TGI [33] greater than 100 µM. It also gave a TGI [34] greater than 100 µM, a TGI [35] greater than 100 µM and a TGI [36] greater than 100 µM. For the same molecule, the TGI [37] was greater than 100 µM, the TGI [38] was greater than 100 µM and the TGI [39] was greater than 100 µM. It also gave a TGI [40] greater than 100 µM, a TGI [41] greater than 100 µM and a TGI [42] greater than 100 µM. For the same molecule, the TGI [59] was greater than 100 µM, the TGI [43] was greater than 100 µM and the TGI [44] was greater than 100 µM. The TGI [45] was greater than 100 µM, the TGI [46] was greater than 100 µM and the TGI [47] was greater than 100 µM. It also gave a TGI [48] greater than 100 µM, a TGI [49] greater than 100 µM and a TGI [50] greater than 100 µM. For the same molecule, the TGI [51] was greater than 100 µM, the TGI [52] was greater than 100 µM and the TGI [53] was greater than 100 µM. The TGI [54] was greater than 100 µM.

`CCOC(=O)CCC(C(=O)OCC)n1nnc2cc(Nc3c(C)[n+]([O-])c4ccc(Cl)cc4[n+]3[O-])ccc21` (stereo not drawn) showed a TGI [1] greater than 100 µM, a TGI [2] greater than 100 µM and a TGI [4] greater than 100 µM. It also gave a TGI [5] greater than 100 µM, a TGI [6] greater than 100 µM and a TGI [7] greater than 100 µM. It also gave a TGI [55] greater than 100 µM, a TGI [8] greater than 100 µM and a TGI [9] greater than 100 µM. For the same molecule, the TGI [10] was greater than 100 µM, the TGI [11] was greater than 100 µM and the TGI [56] was greater than 100 µM. It also gave a TGI [13] greater than 100 µM, a TGI [14] greater than 100 µM and a TGI [15] greater than 100 µM. It also gave a TGI [16] of 97.1 µM, a TGI [17] greater than 100 µM and a TGI [57] greater than 100 µM. It also gave a TGI [18] greater than 100 µM, a TGI [19] greater than 100 µM and a TGI [58] greater than 100 µM. It also gave a TGI [20] greater than 100 µM, a TGI [21] greater than 100 µM and a TGI [22] greater than 100 µM. The TGI [23] was greater than 100 µM, the TGI [24] was greater than 100 µM and the TGI [25] was greater than 100 µM. The TGI [26] was greater than 100 µM, the TGI [27] was greater than 100 µM and the TGI [28] was greater than 100 µM. For the same molecule, the TGI [29] was greater than 100 µM, the TGI [30] was greater than 100 µM and the TGI [31] was greater than 100 µM. The TGI [32] was greater than 100 µM, the TGI [33] was greater than 100 µM and the TGI [34] was greater than 100 µM. For the same molecule, the TGI [35] was greater than 100 µM, the TGI [36] was greater than 100 µM and the TGI [37] was greater than 100 µM. The TGI [38] was greater than 100 µM, the TGI [39] was greater than 100 µM and the TGI [40] was 93 µM. It also gave a TGI [41] greater than 100 µM, a TGI [42] greater than 100 µM and a TGI [59] greater than 100 µM. It also gave a TGI [43] greater than 100 µM, a TGI [44] greater than 100 µM and a TGI [46] greater than 100 µM. It also gave a TGI [47] greater than 100 µM, a TGI [48] greater than 100 µM and a TGI [49] greater than 100 µM. For the same molecule, the TGI [50] was greater than 100 µM, the TGI [51] was greater than 100 µM and the TGI [52] was greater than 100 µM. It also gave a TGI [53] greater than 100 µM and a TGI [54] greater than 100 µM.
